Patent US10150787B2, “TC-PTP inhibitors as APC activators for immunotherapy” (THE ROYAL INSTITUTION FOR THE ADVANCEMENT OF LEARNING / …, priority 2014, dated 2018)

Tests used:
[1] = molecular target: TC-PTP (Homo sapiens (Human), UniProt P17706); assay: Enzyme Assay for TC-PTP; format: biochemical; conditions: inhibition of TC-PTP enzymatic activity
Procedure: 1) Enzyme Assay for TC-PTP
• Assay buffer: 50 mM Bis-Tris (pH=6.3) • 2 mM EDTA • 5 mM N,N′-dimethyl-N,N′-bis(mercaptoacetyl)hydrazine (DMH) • Substrate: 10 mM fluorescein diphosphate (FOP) store at −20° C. (also can use 10 mM DiFMUP) • Enzyme dilution buffer: 50 mM Bis-Tris (pH=6.3) • 2 mM EDTA • 5 mM DMH • 20% (v/v) glycerol • 0.01% Triton X-100
The assay was carried out at room temperature in 96 well plates. The reaction mixture in 170 μl contained 50 mM Bis-Tris (pH=6.3), 2 mM EDTA, 5 mM N,N′-dimethyl-N,N′bis(mercaptoacetyl)hydrazine (DMH) and 10 μM fluorescein diphosphare (FDP) or 6,8-difluoro-4-methylumbelliferyl phosphate (DiFMUP). 10 μl of 10 concentrations (serial dilution) of the test compound (inhibitor) dissolved in DMSO or DMSO alone for control was added to each well and the plate was mixed for 2 min. The reaction was initiated by adding 20 μl of diluted TC-PTP (50 nM for FDP, 0.5 nM for DiFMUP in 50 mM Bis/Tris (pH=6.3), 2 mM EDTA, 5 mM DMH, 20% glycerol and 0.01% Triton X-100. The phosphatase activity was followed by monitoring the appearance of the fluorescent product fluorescein monophosphate (FMP) or 6,8-difluoro-7-hydroxyl-4-coumarin (DiFMU) continuously for 15-30 min, using the Spectromax Gemini fluorescent plate reader ([…]) with excitation of 440 nm and emission at 530 nm (cutoff filter at 525 nm) for FDP and excitation at 360 nm and emission at 450 nm (cutoff filter at 435 nm) for DiFMUP. All the assays were done at least in duplicate. The initial rate of FMP or DiFMU formation is plotted against the concentration of inhibitor and the data was fitted to 4-parameter equation and the inflection point of the fit is the IC50.

[2] = test system: monocyte-derived DCs; assay: Mouse Dendritic Cell Assay (IL-12 production); format: cell-based; conditions: for % increase in IL-12 production: 24 h IL-12 production following 6 days of DC incubation and maturation in the presence of 32 μM of test compound vs vehicle-treated cells; for potency in the IL-12 release assay (in words): IL-12 release assay shown in Example 12
Procedure: Mouse bone marrow cells were flushed from the femur and tibia into RPMI (supplemented with 10% FBS, gentamicin, HEPES, non-essential amino acids) using a syringe equipped with a 23 gauge needle. Clumps were dispersed by gently passing the cell suspension several times through the syringe. Any remaining clumps of cells and debris were removed by passing cell suspension through a 70 μM nylon strainer. The suspension was centrifuged (300×g for 10 mins), the supernatant was discarded and the cells were resuspended in 5 ml of red cell lysis buffer (SIGMA). The cells were counted and mouse monocytes cells (CD11b+) were isolated according to the instructions for positive selection of CD11 b cells (Stemcell technologies). The cells were then resuspended in RPMI media supplemented with 10% FBS, gentamicin, Hepes and non-essential aminoacids (aa) and treated with 40 ng/ml of recombinant mouse GM-CSF and IL-4 (Peprotech). Mouse monocytes were plated at 1×10^6 cells/mL. The cells were incubated for 6 days at 37° C., 5% CO2 in a humidified incubator in the presence of different concentrations of the compounds (0-32 μM). The media was changed every three days by removing half of the media from the plate and replenishing with the same volume of fresh media supplemented with cytokines and the test compounds at the same concentrations.
Immature monocyte-derived DCs may be incubated with a DC maturation cocktail containing the test compounds and incubated for an additional 24-72 hours. There are many DC maturation cocktails identified in the literature, with the “gold standard” consisting of 10 ng/ml TNF-α, 10 ng/ml IL-1β, 1000 units/ml IL-6 and 1 μg/mL PGE2. Alternatively, MPLA (10 μg/mL) and IFNγ (500 U/ml, Peprotech, for clinical research) has also been used. For the data shown in Example 12, the immature monocyte-derived DCs were cultured with LPS (1 μg/mL)) for 48 hours to induce maturation. Test compounds were included in the maturation cocktail at concentrations varying between 1 and 32 μM.
(§1) Characteristics of the mature DCs can be determined by a number of assays including flow cytometry analysis of the surface markers expressed on DCs, the cytokine production profile of activated DCs, antigen presentation assay and in vivo experiments to assess the DC-mediated antitumor response and cancer immunity.

[3] = test system: EG7 lymphoma cells; assay: Mouse Syngeneic Tumor Model, treated with inhibitor-activated mature dendritic cells; format: in vivo; conditions: tumor volume in mice 28 days following a single treatment of mature dendritic cells activated by the compound; Example 5 vs Example 6
From the text: A novel dual reporter (GFP & luciferase) MSCV based plasmid was creating by subcloning from two commercially available constructs (addgene 19360: pLenti pgk and addgene 18751: MSCV-IRES-GFP). This construct was used to generate retrovirus for infection of EG7 lymphoma cells (ATCC#CRL-2133). EG7-ova expressing cells are a commonly used model for T cell lymphoma engineered to express the ovalbumin antigen making them useful in immunological and drug discovery applications. These cells were then GFP sorted at the McGill University Life Sciences Complex flow cytometry core (BD FACscalibur) prior to subcutaneous implantation (5×10^5 cells) in syngeneic C57bl6 mice (Harlan). Tumors were allowed to establish in the mice and then were imaged ten days post implantation (Perkin Elmer IVIS100) and luminescence was quantified using IVIS software. Mice were then treated on day 10 post injection with 2×10^6 ex vivo-derived and inhibitor-treated mature dendritic cells (IP injection) (see ex vivo activation of monocyte derived DC with PTP inhibitor). Ovalbulim was added to DC cultures during maturation at a concentration of 2.5 mg/mL. Following maturation, DCs were harvested by gently resuspending with phosphate-buffered saline to dislodge any loosely attached cells. Cells were then spun down and washed twice with phosphate-buffered saline. […]

[4] = test system: dendritic cells derived from monocytes taken from human pancreatic cancer patients; assay: Human Dendritic Cell Assay (IL-12 release); format: cell-based; conditions: DCs matured in the presence of the compound vs the same cells matured without it
Procedure: A sample of human blood was diluted with an equal volume of PBS plus 2% FBS. The diluted blood was layered on top of Lymphoprep (Stemcell technologies) being careful to minimize the mixing of the blood with Lymphoprep. The mixture was centrifuged at 800×g for 20 minutes at room temperature with brake off. If the blood had been stored for more than 2 hours, the centrifugation time was increased to 30 minutes. The upper plasma layer was then removed and discarded without disturbing the plasma-lymphoprep interface. The mononuclear cell layer (PMBC) at the plasma-lymphoprep interface was removed and retained without disturbing the erythrocyte/granulocyte pellet. The mononuclear cells were washed once with media and the CD14+ cells were isolated according to the instructions for the positive selection of CD14+ kit (Stemcell technologies). The resulting CD14+ cells were cultured in PromoCell monocyte attachment media (PromoCell). Cells were plated at 0.5×10^6 cells/cm^2 and incubated for 1 h at 5% CO2 and 37° C. in a humidified incubator. […]
as §1

TC-PTP, sequence (P17706 whole entry, species assumed): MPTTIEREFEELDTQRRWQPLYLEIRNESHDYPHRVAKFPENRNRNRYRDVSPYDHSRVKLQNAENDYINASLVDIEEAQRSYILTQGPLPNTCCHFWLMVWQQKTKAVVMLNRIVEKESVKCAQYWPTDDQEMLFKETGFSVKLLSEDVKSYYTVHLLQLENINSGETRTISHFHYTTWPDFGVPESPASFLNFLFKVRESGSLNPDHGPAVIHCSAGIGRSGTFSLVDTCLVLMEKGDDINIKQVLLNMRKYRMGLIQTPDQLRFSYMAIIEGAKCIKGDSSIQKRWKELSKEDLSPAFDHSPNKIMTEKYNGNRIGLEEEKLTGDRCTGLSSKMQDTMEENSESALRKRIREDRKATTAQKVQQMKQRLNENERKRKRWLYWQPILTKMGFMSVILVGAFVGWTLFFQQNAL

Structure (SMILES) | IC50 [1] [nM] | % increase in IL-12 production [2] [%] | potency in the IL-12 release assay (in words) [2] | efficacy at reducing tumor volume [3] | release of IL-12 [4]
CCOC(=O)c1cc2cc(C(F)(F)P(=O)(O)O)c(Br)cc2s1 [Ex. 1, ((6-Bromo-2-(Ethoxycarbonyl)Benzo[b]Thiophen-5-yl)Difluoromethyl)Phosphonate] | 450 | 161 |  |  | 
O=C(O)c1cc2cc(C(F)(F)P(=O)(O)O)c(Br)cc2s1 [Ex. 2, 6-Bromo-5-(Difluoro(Phosphonato)Methyl)Benzo[b]Thiophene-2-Carboxylate] | 260 | 143 |  |  | 
NC(=O)c1cc2cc(C(F)(F)P(=O)(O)O)c(Br)cc2s1 [Ex. 3, ((6-Bromo-2-Carbamoylbenzo[b]Thiophen-5-yl)Difluoromethyl)Phosphonate] | 280 | 130 |  |  | 
N#Cc1cc2cc(C(F)(F)P(=O)(O)O)c(Br)cc2s1 [Ex. 4, ((6-Bromo-2-Cyanobenzo[b]Thiophen-5-yl)Difluoromethyl)Phosphonate] | 1200 | 85 |  |  | 
O=P(O)(O)C(F)(F)c1cc2cc(CO)sc2cc1Br [Ex. 5, ((6-Bromo-2-(Hydroxymethyl)Benzo[b]Thiophen-5-yl)Difluoromethyl)Phosphonate] | 1500 | 144 | potent | greater efficacy at reducing tumor volume | 
N#CCc1cc2cc(C(F)(F)P(=O)(O)O)c(Br)cc2s1 [Ex. 6, ((6-Bromo-2-(Cyanomethyl)Benzo[b]Thiophen-5-yl)Difluoromethyl)Phosphonate] | 370 | 60 | less potent |  | 
CCOC(=O)c1cc2cc(Br)c(C(F)(F)P(=O)(O)O)cc2s1 [Ex. 7, ((5-Bromo-2-(Ethoxycarbonyl)Benzo[b]Thiophen-6-yl)Difluoromethyl)Phosphonate] | 740 | 171 |  |  | greater release of IL-12
COC(=O)c1cc2cc(Br)c(C(F)(F)P(=O)(O)O)cc2s1 [Ex. 8, ((5-Bromo-2-(Methoxycarbonyl)Benzo[b]Thiophen-6-yl)Difluoromethyl)Phosphonate] | 2900 |  |  |  | 
O=C(O)c1cc2cc(Br)c(C(F)(F)P(=O)(O)O)cc2s1 [Ex. 9, ((5-Bromo-2-(Carboxy)Benzo[b]Thiophen-6-yl)Difluoromethyl)Phosphonate] | 170 |  |  |  | 
N#Cc1ccc2cc(Br)c(C(F)(F)P(=O)(O)O)cc2c1 [Ex. 10, [(3-Bromo-7-Cyano-2-Naphthyl)(Difluoro)Methyl]Phosphonate] | 490 | 42 |  |  | 
